Reference: PubChem BioAssay AID488890 (Southern Research Specialized Biocontainment Screening …, 2010)
Inconclusive results are not listed. The source made the active and inactive calls. The rule behind the calls is not given here.

What follows are compounds tested on Mycobacterium tuberculosis non-replicating, growth inhibition (assay: growth inhibition of non-replicating M. tuberculosis (AID 488890)).

SMILES	IC50
CCOc1ccc(NC(=O)COc2ccc3c(c2)OCO3)cc1	10.6 µM (inactive)
COc1cc(CNCCO)cc(Cl)c1OCc1ccc(Cl)cc1Cl	6.67 µM
Clc1ccc(-c2ccc(CNCc3ccccn3)o2)cc1	0.77 µM
Cc1ccc2nc3c(c(N)c2c1)CCN3c1ccccc1	28.4 µM (inactive)
Cc1cc(C)c2sc(NC(=O)C3=COCCO3)nc2c1	8.29 µM
O=C(NCCc1ccccc1)c1nc(-c2cccs2)no1	2.21 µM
O=[N+]([O-])c1ccc(CN2CCN(c3ccccc3Cl)CC2)o1	3.83 µM
O=C(Oc1ccccc1Cl)c1ccc2c(=O)n3c(nc2c1)CCC3	2.28 µM
NC(=O)COC(=O)c1sc2ccccc2c1Cl	8.25 µM
CCSc1nc(O)c(C2OC(=O)c3c2ccc(OC)c3OC)c(=O)n1-c1ccccc1 (stereo unspecified)	13.3 µM (inactive)
COc1cc(OC)cc(OC(=O)c2ccc3c(=O)n4c(nc3c2)CCC4)c1	4.95 µM
O=C(c1cccs1)N1CCN(c2ccc(Cl)cc2)CC1	27.2 µM (inactive)
Cc1ccc(C(=O)Nc2nnc(-c3ccncc3)o2)cc1	23.3 µM (inactive)
CCCCOc1ccc(NC(=O)CN2CCN(Cc3ccccc3)CC2)cc1	25.6 µM (inactive)
CCn1nnc(NC(=O)c2ccc(-c3ccc(Cl)cc3)o2)n1	3.07 µM
OC(CNCC1CCCO1)Cn1c2ccc(Cl)cc2c2cc(Cl)ccc21 (stereo unspecified)	8.38 µM
Cn1c(=O)[nH]c(=O)c2c1nc([N+](=O)[O-])n2Cc1ccccc1	4.58 µM
O=c1c2ccc(Cl)cc2nc(-c2cccc(C(F)(F)F)c2)n1O	0.33 µM
CC(=O)c1ccc(NC(=O)CCc2ccc(C)o2)cc1	25.8 µM (inactive)
CSc1nnc(Cc2ccc3c(c2)OCO3)o1	7.56 µM
O=C(Cc1ccc([N+](=O)[O-])cc1)N/N=C/c1ccc([N+](=O)[O-])o1	21.8 µM (inactive)
O=C1/C(=C/c2ccco2)CCC1C1CCCC1 (stereo unspecified)	13.8 µM (inactive)
Cc1cc(OCc2cc(C(=O)N(C)CCc3cnn(C)c3)no2)cc(C)c1Cl	30.6 µM (inactive)
O=C(c1nnc(-c2ccc(Cl)cc2)o1)C1CCCC1	11.4 µM (inactive)

SMILES	IC50
Cc1ccc(OCCCCn2ccnc2)c(Cl)c1	8.23 µM
O=c1c2cc(Cl)ccc2nc(-c2ccc([N+](=O)[O-])cc2)n1O	2.2 µM
CC(=O)c1cc2c(ccc3ccccc32)oc1=O	15.4 µM (inactive)
CCCc1nnc(NC(=O)c2cc3ccccc3oc2=O)s1	2.34 µM
Cc1cccc(CSc2nnc(-c3ccco3)o2)c1	0.67 µM
CCC(C)NCCOc1ccc(C(C)(C)c2ccccc2)cc1 (stereo unspecified)	10.4 µM (inactive)
CCCCNC(=O)Nc1nnc(-c2ccc(Cl)cc2)o1	22.8 µM (inactive)
CC(Oc1ccc2ccccc2c1)C(=O)NNC(=S)NC(=O)c1ccco1 (stereo unspecified)	22.1 µM (inactive)
CCOc1ccc2nc(NC(=O)c3ccccn3)sc2c1	1.03 µM
O=C(CCC1CCCC1)NCc1ccccn1	3.4 µM
O=C(Nc1nc2ccccc2n1CCOc1ccc(Cl)cc1)c1ccco1	14.4 µM (inactive)
O=C(c1ccccc1)C1CN(Cc2ccccc2)CCC1(O)c1ccccc1 (stereo unspecified)	3.82 µM
CC1C/C(=N/N2C(=O)CSC2=S)CC(C)(C)C1 (stereo unspecified)	30.6 µM (inactive)
O=C(COc1ccc2ccccc2c1)NNC(=O)c1cccs1	4.52 µM
O=C1/C(=C/c2cccs2)COc2ccccc21	13.9 µM (inactive)
Cc1cc(C)c2ccc(/C=N/O)nc2c1O	5.77 µM
S=c1[nH]c2ccccc2o1	27.5 µM (inactive)
CCOC(=O)COc1ccc2c(=O)cc(-c3ccccc3)oc2c1	0.83 µM
Cc1cc([N+](=O)[O-])ccc1NC(=O)Nc1ccc(F)cc1F	21.9 µM (inactive)
CCc1ccc(N2C(=O)NC(=O)/C(=C\C=C\c3ccco3)C2=O)cc1	10.9 µM (inactive)
CCNC(=O)NC(=O)C(C)OC(=O)CCCSc1nc2ccccc2s1 (stereo unspecified)	4.68 µM
CCOC(=O)c1c(NC(C)=O)sc2c(OCC(O)CNC(C)(C)C)c(Br)ccc12 (stereo unspecified)	4.44 µM
CC(C)Cc1cc(C(=O)Nc2ccc(F)cc2F)no1	2.34 µM
O=C(COC(=O)CCC(=O)c1ccc(F)cc1)Nc1ccccc1	11.1 µM (inactive)

SMILES	IC50
CCOC(=O)COc1ccc2c(c1)c(C(C)=O)c(C)n2Cc1ccccc1	4.62 µM
Clc1ccc(CN2C3=NCCCN3c3ccccc32)cc1	12.3 µM (inactive)
CCCOc1ccc(-c2nc(C#N)c(NCCCn3ccnc3)o2)cc1	17 µM (inactive)
Cc1cc(/C=N\NC(=O)c2cccs2)c(C)n1-c1ccc2ncccc2c1	> 25 µM (inactive)
COc1cccc2cc(-c3nc4ccccc4[nH]3)c(=O)oc12	< 0.2 µM
CC(C)(C)/C(O)=C/c1nc2ccccc2oc1=O	6.85 µM
Cc1cccc(-c2cc3nc(C)c(C)c(NCCCn4ccnc4)n3n2)c1	10.9 µM (inactive)
COC(=O)C1CC(=O)N(c2ccc(OCc3ccccc3Cl)cc2)C1 (stereo unspecified)	3.53 µM
N#CC1=C(c2ccccc2)/C(=C/c2ccccc2)OC1=O	2.82 µM
O=[N+]([O-])c1ccc(N2CCCCCC2)c2nonc12	21.7 µM (inactive)
CCc1cc(OCCCCNCc2ccccc2)ccc1Cl	11.3 µM (inactive)
COc1ccc(OC)c(N2C(=O)NC(=O)/C(=C/c3ccc([N+](=O)[O-])s3)C2=O)c1	25.5 µM (inactive)
CCCC(O)(CCC)C(=O)NNc1ccc(C)cc1	5.94 µM
CCC(=O)Nc1ccc(C(=O)NNC(=O)c2cc([N+](=O)[O-])cc([N+](=O)[O-])c2)cc1	12.9 µM (inactive)
CCOC(=O)c1sc(NC(=O)CCN2CC(C)OC(C)C2)c(C(=O)OCC)c1C (stereo unspecified)	21.8 µM (inactive)
O=C(Nc1ccccc1N1CCCC1)c1cccc(F)c1	24.4 µM (inactive)
O=[N+]([O-])c1ccc(CN2CCN(c3ccccc3)CC2)o1	0.64 µM
CN1CCN(C2Cc3ccccc3Sc3cc(C(F)(F)F)ccc32)CC1 (stereo unspecified)	12 µM (inactive)
CC1=NN(C(=O)COc2ccccc2)C(O)(c2ccccc2)C1 (stereo unspecified)	1.36 µM
C/C(Cn1nnc([N+](=O)[O-])n1)=N\NC(=O)c1ccncc1	1.63 µM
Cc1ccc(CNC(=O)c2cnccn2)cc1	1.36 µM
Cc1cc(C(=O)N/N=C/c2ccc(OC(=O)c3ccccc3Br)cc2)n[nH]1	15.6 µM (inactive)
Cc1ccccc1OCCCCc1c(C)n[nH]c1C	13.1 µM (inactive)
O=C(N/N=C/C=C/c1ccco1)c1ccncc1	1.19 µM

SMILES	IC50
O=C1NC2(CCC3(CC2)OCCO3)NN1c1ccc(Cl)cc1	0.84 µM
Cc1ccc(N/N=C2\CS(=O)(=O)N(C)c3ccsc32)cc1	0.31 µM
CCCCSc1nnc(-c2cc(Br)ccc2N)c(=O)[nH]1	12.6 µM (inactive)
Cc1cc(NCc2ccccn2)n2nc(C)c(-c3ccc(Cl)cc3)c2n1	1.85 µM
CCN(CC)CCSc1nnc2c3cc(C)ccc3n(Cc3ccccc3)c2n1	14.3 µM (inactive)
CN1C(=O)N(C)c2ccc(C=O)c3cccc1c23	3.65 µM
O=S1(=O)N=C(N/N=C/C=C/c2ccccc2)c2ccccc21	8.69 µM
Cc1cc(C)cc(OCC(=O)N/N=C/c2ccc([N+](=O)[O-])o2)c1	1.36 µM
CCn1c(-c2ccco2)nc2ccccc21	8.99 µM
CCc1nnc(N/N=C/c2ccc(N3CCC(C)CC3)c([N+](=O)[O-])c2)n1N	3.83 µM
CCOc1cc(-c2sc(Nc3cc(C)ccc3OC)n[n+]2-c2ccccc2)ccc1OC	4.29 µM
Cc1ccc(-c2nnc(Cc3ccc([N+](=O)[O-])cc3)o2)cc1	1.77 µM
CN(CCS(=O)(=O)c1ccc(Cl)cc1)Cc1cccnc1	13.2 µM (inactive)
Cc1cc(N2CCN(c3ccccc3)CC2)nc(-n2nc(C)cc2C)n1	6.28 µM
CCOC(=O)c1csc(COc2ccccc2Cl)n1	1.57 µM
Cc1ccc2nc(CCc3nc4ccc(C)cc4[nH]3)[nH]c2c1	17.1 µM (inactive)
CCCn1c(NC(=O)c2ccccc2)nc2ccccc21	8.74 µM
CS/C(Nc1cc(Cl)ccc1Cl)=C(/C#N)C(=O)c1ccco1	1.5 µM
CCOc1ccc(OCC(=O)OCc2cc(=O)n3cc(Br)ccc3n2)cc1	8.96 µM
O=C(COc1ccc([N+](=O)[O-])cc1)NNC(=O)c1cccs1	28.1 µM (inactive)
COc1ccc(C(=O)COC(=O)c2ccc([N+](=O)[O-])s2)cc1OC	2.8 µM
COc1ccc(C(=O)N/N=C(\C)c2ccccn2)cc1OC	4.92 µM
COc1ccc(NC(=O)c2nc3ccccc3s2)cc1	9.36 µM
CC(CCc1ccccc1)NC(=O)COC(=O)c1cccs1 (stereo unspecified)	13.4 µM (inactive)

SMILES	IC50
CC(NC(=O)COc1ccccc1F)C1CC2CCC1C2 (stereo unspecified)	0.42 µM
COc1ccc(/C=C2\COc3ccccc3C2=O)cc1OC	12.5 µM (inactive)
S=C1NC2(CCCC2)N=C1c1ccccc1	12.4 µM (inactive)
CCOc1ccc(OCCSc2ccc(S(=O)(=O)N3CCN(C)CC3)cn2)cc1	15.5 µM (inactive)
O=C1NC(=O)C(=Cc2ccc(Oc3ccc([N+](=O)[O-])cc3)cc2)C(=O)N1	16.5 µM (inactive)
O=C(/C=C/Nc1ccccc1O)c1ccco1	2.02 µM
O=C(NCCC1=CCCCC1)c1ccc(Br)o1	2.31 µM
CC1=CC(C)(C)Nc2ccc(OC(=O)CN3C(=O)c4ccccc4C3=O)cc21	9.07 µM
CCOC(=O)Cn1c(-c2ccccc2)ccc(C#N)c1=O	4.71 µM
COC(=O)c1cccc(COC(=O)c2cc3ccccc3oc2=O)c1	11.7 µM (inactive)
CC(=O)OCCNc1cc(SCc2ccco2)c2nonc2c1[N+](=O)[O-]	3.04 µM
O=c1cc(-c2ccncc2)oc2c1ccc1ccccc12	22.3 µM (inactive)
O=c1c2cc(Cl)ccc2nc(-c2ccccc2Cl)n1O	15.5 µM (inactive)
Cc1ccc(CNCc2cc(Cl)ccc2O)cc1	12.8 µM (inactive)
O=C(Nc1nc2ccccc2[nH]1)c1ccc(F)cc1	13 µM (inactive)
Cc1ccc(NC(=O)COc2ccccc2)cc1Cl	9.92 µM
COC(=O)COc1ccc(S(=O)(=O)NCc2ccc3c(c2)OCO3)cc1	14.3 µM (inactive)
COC(=O)CCCC(=O)N1CCCC(C(=O)c2ccc(-c3ccccc3)cc2)C1 (stereo unspecified)	35.8 µM (inactive)
O=C(COC(=O)c1cc(Br)ccc1O)Nc1ccc2c(c1)OCO2	7.79 µM
c1ccc(Cc2nnc(-c3ccccc3)o2)cc1	0.19 µM
